For data set [1], the target named is DNA topoisomerase 2-alpha (Homo sapiens) (UniProt P11388). The experiment in a line: Inhibition of Top2 (unknown origin) mediated supercoiled DNA relaxation at 100 uM.
Data set [2] is described as follows: Cmax in Sprague-Dawley rat at 2.5 mg/kg, iv after 24 hrs by LC-MS/MS analysis. The arrangement: route intravenous, time 24 hrs, dose 2.5 mg/kg. The note with it: in vivo. Format: ADME, organism-based.
Data set [3] in a line: AUC (0 to t) in Sprague-Dawley rat at 2.5 mg/kg, iv after 24 hrs by LC-MS/MS analysis. It counts as ADME, organism-based. Details: route intravenous, dose 2.5 mg/kg, time 24 hrs. Particulars: in vivo.
A short description of data set [4]: AUC (0 to infinity) in Sprague-Dawley rat at 2.5 mg/kg, iv after 24 hrs by LC-MS/MS analysis. Format: ADME, organism-based. Details: route intravenous, time 24 hrs, dose 2.5 mg/kg. Particulars: in vivo.
A short description of data set [5]: Tmax in Sprague-Dawley rat at 5 mg/kg, po after 24 hrs by LC-MS/MS analysis. Format: ADME, organism-based. Particulars: in vivo.
A short description of data set [6]: Cmax in Sprague-Dawley rat at 5 mg/kg, po after 24 hrs by LC-MS/MS analysis. The arrangement: route oral, dose 5 mg/kg, time 24 hrs. The note with it: in vivo. Format: ADME, organism-based.
Data set [7] in a line: MRT (0 to t) in Sprague-Dawley rat at 5 mg/kg, po after 24 hrs by LC-MS/MS analysis. It counts as ADME, organism-based. The note with it: in vivo.
Data set [8] in a line: Oral bioavailability in Sprague-Dawley rat at 5 mg/kg after 24 hrs by LC-MS/MS analysis. Format: ADME, organism-based. Particulars: in vivo.
Data set [9] addresses T1, Cytochrome P450 2B6 (Homo sapiens, UniProt P20813).
T1 sequence (P20813 whole entry): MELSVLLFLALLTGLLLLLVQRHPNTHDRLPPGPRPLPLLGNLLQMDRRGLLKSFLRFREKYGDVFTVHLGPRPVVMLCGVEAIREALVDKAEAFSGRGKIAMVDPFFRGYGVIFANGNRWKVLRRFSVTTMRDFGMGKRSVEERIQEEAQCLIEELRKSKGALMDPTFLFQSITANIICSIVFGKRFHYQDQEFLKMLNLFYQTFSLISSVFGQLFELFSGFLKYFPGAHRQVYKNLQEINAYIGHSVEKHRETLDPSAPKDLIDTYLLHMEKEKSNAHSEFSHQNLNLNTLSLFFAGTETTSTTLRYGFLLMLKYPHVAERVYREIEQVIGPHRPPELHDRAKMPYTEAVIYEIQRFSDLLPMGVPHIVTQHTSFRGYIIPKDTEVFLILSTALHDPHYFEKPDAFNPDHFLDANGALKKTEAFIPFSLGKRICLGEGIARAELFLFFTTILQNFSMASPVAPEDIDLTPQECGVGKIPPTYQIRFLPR
The experiment in a line: Inhibition of CYP2B6 (unknown origin). Format: ADME.

The target in data set [10] is Cytochrome P450 2D6 (Homo sapiens, UniProt P10635). Briefly: Inhibition of CYP2D6 (unknown origin). It counts as ADME.
Sequence of Cytochrome P450 2D6 (P10635 whole entry): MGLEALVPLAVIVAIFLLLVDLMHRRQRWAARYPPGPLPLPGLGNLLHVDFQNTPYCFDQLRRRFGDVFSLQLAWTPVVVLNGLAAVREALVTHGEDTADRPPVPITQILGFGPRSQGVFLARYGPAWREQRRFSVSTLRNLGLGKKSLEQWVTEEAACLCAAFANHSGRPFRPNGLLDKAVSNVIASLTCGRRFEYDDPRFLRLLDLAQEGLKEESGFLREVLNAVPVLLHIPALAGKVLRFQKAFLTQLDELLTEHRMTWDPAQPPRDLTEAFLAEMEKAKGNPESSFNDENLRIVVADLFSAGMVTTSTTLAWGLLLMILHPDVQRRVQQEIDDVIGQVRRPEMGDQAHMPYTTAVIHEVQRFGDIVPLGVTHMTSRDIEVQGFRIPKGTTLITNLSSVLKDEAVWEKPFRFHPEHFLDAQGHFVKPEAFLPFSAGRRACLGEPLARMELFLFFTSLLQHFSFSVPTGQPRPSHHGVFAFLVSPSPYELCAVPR

The source made the active and inactive calls. The calls are words filed in the database; no cut-off is given here.

In general, Cmax refers to the peak of the concentration-time curve. The term AUC(0-t) denotes the area under the concentration-time curve up to a stated or last time point. Low values mean less exposure, high ones more exposure. What is called AUC(0-inf) is total exposure, with the tail of the curve extrapolated. A low value points to low exposure. In general, Tmax refers to the time from dosing to the highest level. The term MRT last denotes the average time that molecules of a dose stay in the body. In general, bioavailability refers to the share of a dose that reaches the circulation, judged against a reference dose that is usually intravenous. A low value points to poor availability. As a reminder, the IC50 is the concentration that inhibits the measured activity by half. Low values mean greater potency in that assay, high ones weaker potency in that assay.

Sequence of DNA topoisomerase 2-alpha (Homo sapiens) (P11388 whole entry): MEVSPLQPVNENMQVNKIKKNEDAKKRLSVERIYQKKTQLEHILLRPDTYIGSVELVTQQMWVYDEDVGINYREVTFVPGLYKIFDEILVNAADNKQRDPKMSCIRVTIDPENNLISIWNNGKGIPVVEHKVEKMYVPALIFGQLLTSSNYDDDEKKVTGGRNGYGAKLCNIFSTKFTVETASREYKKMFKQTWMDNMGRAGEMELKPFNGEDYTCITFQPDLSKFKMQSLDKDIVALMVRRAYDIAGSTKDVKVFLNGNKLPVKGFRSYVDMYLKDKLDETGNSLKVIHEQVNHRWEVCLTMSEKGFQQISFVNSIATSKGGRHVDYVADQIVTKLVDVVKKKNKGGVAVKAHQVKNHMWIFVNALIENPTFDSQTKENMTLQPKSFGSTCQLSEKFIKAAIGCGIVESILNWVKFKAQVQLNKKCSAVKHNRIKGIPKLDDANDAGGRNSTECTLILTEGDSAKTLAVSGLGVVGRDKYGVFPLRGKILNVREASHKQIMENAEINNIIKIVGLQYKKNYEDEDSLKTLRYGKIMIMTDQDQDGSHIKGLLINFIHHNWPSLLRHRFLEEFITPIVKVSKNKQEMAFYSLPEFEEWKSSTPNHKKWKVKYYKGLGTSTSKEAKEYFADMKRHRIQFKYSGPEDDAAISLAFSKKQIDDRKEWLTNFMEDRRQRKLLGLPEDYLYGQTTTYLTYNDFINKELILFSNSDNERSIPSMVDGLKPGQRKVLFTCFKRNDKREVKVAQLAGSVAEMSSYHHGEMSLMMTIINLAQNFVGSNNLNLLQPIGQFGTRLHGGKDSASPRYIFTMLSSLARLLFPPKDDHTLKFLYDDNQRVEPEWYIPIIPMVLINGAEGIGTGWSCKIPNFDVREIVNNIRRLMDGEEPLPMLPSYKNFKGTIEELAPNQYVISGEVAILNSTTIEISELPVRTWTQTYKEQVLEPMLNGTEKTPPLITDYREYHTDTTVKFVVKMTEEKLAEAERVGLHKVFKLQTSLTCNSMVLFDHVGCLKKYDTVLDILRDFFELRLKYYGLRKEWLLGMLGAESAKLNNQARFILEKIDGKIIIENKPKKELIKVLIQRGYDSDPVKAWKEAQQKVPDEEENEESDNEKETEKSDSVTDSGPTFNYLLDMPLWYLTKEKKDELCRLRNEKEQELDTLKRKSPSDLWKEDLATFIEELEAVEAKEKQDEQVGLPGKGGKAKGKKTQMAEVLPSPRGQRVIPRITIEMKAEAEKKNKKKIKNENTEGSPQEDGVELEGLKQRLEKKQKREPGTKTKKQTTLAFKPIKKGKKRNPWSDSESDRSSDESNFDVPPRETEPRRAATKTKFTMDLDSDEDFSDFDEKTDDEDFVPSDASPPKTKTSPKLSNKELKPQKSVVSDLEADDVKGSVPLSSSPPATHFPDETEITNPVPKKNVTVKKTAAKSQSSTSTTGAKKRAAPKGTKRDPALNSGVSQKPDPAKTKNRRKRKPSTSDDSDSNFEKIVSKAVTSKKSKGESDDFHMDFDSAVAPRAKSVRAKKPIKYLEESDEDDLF

On to `COc1ccc2c3c([nH]c2c1)[C@@H]1N(CC3)C(=O)c2c(OC)cccc2N1C`, for which the inhibition result in [1] was “inactive”. Besides, the Cmax in [2] was 1800 ng/mL; in data set [6] it was 54.4 ng/mL. The AUC(0-t) at 24 h in [3] was determined as 519 ng·h/mL. The AUC(0-inf) in data set [4] is 520 ng·h/mL. The Tmax in [5] came to 0.83 h. The same compound yielded an MRT last at 24 h in data set [7] of 3.19 h. The compound further displayed a bioavailability in data set [8] of 14%. For the same compound, the IC50 in data set [9] and in data set [10] was 10 µM each time.
